Reference: patent US4430335A (priority 1983, dated 1984)

Test system: mice
Design: species or system mice (male, CD-1)
Settings: mouse, in vivo

## CCC(=O)O[C@](Cc1ccccc1)(c1ccccc1)[C@H](C)CN(C)C [propoxyphine]
  Dose Subcutaneously (sc) [*= ED50 ], 50 % Inhibition of phenylquinone writhing: 3.4
